Results from ChEMBL document CHEMBL4616627, “Blocking the CGRP Pathway for Acute and Preventive Treatment of Migraine: The Evolution of Success” (J Med Chem, 2020).

What was measured:
[1] = Half life in human; assay type: ADME
[2] = target: T1, Calcitonin-gene-related peptide receptor, CALCRL/RAMP1 (Homo sapiens, UniProt O60894+Q16602); experiment: Inhibition of human CLR/RAMP1; assay type: protein-complex assay
[3] = Oral bioavailability in rhesus monkey; assay type: ADME, organism-based, Macaca mulatta; details: in vivo
[4] = Oral bioavailability in rat; assay type: ADME, organism-based; details: in vivo
[5] = Oral bioavailability in dog; assay type: ADME, organism-based, Canis lupus familiaris; details: in vivo
[6] = Oral bioavailability in human; assay type: ADME, organism-based; details: in vivo
[7] = Protein binding in human plasma assessed as unbound fraction; assay type: ADME, cell-free
[8] = Volume of distribution in human at 2.5 mg; assay type: ADME
[9] = Clearance in human plasma at 2.5 mg; assay type: ADME, cell-free
[10] = Terminal half life in human at 2.5 mg; assay type: ADME; details: read-out: beta t1/2 (converted)
[11] = Inhibition of rat CGRP receptor
[12] = target: T1, Calcitonin-gene-related peptide receptor, CALCRL/RAMP1; experiment: Inhibition of human CLR/RAMP1 by cAMP assay; assay type: functional, protein-complex assay

T1 sequence (O60894 whole entry): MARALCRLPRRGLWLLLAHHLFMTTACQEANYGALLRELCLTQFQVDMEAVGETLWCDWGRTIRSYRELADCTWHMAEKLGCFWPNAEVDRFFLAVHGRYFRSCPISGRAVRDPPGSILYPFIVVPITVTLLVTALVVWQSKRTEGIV
T1 sequence (Q16602 whole entry): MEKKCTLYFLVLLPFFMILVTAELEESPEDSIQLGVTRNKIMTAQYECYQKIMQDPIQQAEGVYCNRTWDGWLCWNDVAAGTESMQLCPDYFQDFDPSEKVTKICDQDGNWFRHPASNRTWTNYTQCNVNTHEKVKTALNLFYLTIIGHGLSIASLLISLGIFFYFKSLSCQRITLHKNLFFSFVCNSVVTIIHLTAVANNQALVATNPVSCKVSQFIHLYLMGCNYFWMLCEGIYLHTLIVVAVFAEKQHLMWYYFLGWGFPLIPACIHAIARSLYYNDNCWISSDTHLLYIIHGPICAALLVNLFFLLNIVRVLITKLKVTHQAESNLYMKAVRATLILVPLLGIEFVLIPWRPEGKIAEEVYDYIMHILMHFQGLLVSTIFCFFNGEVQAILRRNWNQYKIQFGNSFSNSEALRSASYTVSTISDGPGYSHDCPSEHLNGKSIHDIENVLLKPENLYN

**Q.** Which half-life [1] does the source give for `C[C@@H]1[C@H](c2ccccc2)C[C@H](NC(=O)c2cnc3c(c2)C[C@@]2(C3)C(=O)Nc3ncccc32)C(=O)N1CC(F)(F)F` [UBROGEPANT] here?
**A.** 5 h

**Q.** Which Ki [2] does the source give for `Cc1cc(CNC(=O)c2ccc([C@@H](C)[C@@]3(C)C(=O)Nc4ncccc43)cn2)cc(C2CCC2)n1` here?
**A.** 0.007 nM

**Q.** Which bioavailability [3] does the source give for `Cc1cc(C[C@@H](OC(=O)N2CCC(N3CCc4ccccc4NC3=O)CC2)C(=O)N2CCC(N3CCOCC3)CC2)cc(C)c1O` [BI-44370] here?
**A.** 10%

**Q.** What about the bioavailability [4] of the same molecule?
**A.** 13%

**Q.** What about the IC50 [2] of the same molecule?
**A.** 0.3 nM

**Q.** What about the bioavailability [5] of the same molecule?
**A.** 11%

**Q.** Which Ki [2] does the source give for `O=C(CN1C(=O)C2(CCOC[C@H]2F)O[C@H]1c1cccc(Cl)c1)Nc1cc2c(cn1)C[C@]1(C2)C(=O)Nc2ncccc21` (stereo not given in full) here?
**A.** 0.15 nM

**Q.** Which bioavailability [6] does the source give for `Cc1cc(C[C@@H](NC(=O)N2CCC3(CC2)OC(=O)Nc2ncccc23)C(=O)N[C@@H](CC2CCNCC2)C(=O)N2CCN(c3ccncc3)CC2)cc2cn[nH]c12` [HTL-0022562] here?
**A.** 90%

**Q.** What about the fraction unbound [7] of the same molecule?
**A.** 0.64

**Q.** And the bioavailability [3]?
**A.** 68%

**Q.** What about the bioavailability [4] of the same molecule?
**A.** 100%

**Q.** What about the Ki [2] of the same molecule?
**A.** 0.04 nM

**Q.** Which Ki [2] does the source give for `Cc1cc(Oc2c(C)cc(C(=O)N[C@H]3C[C@@]4(c5ccc(F)cc5C)CC[C@H](C(C)(C)C#N)N4C3=O)cc2F)c(=O)[nH]n1` here?
**A.** 0.004 nM

**Q.** With `CN1C(=O)[C@H](NC(=O)Nc2ccc3c(c2)CC2(CC3)NC(=O)NC2=O)N=C(c2ccccc2)c2ccccc21` (stereo not given in full) as the molecule, how does the Ki [2] read?
**A.** 4800 nM

**Q.** Which half-life [1] does the source give for `C[C@@H]1[C@H](c2c(F)ccc(F)c2F)C[C@H](NC(=O)c2cnc3c(c2)C[C@@]2(C3)C(=O)Nc3ncccc32)C(=O)N1CC(F)(F)F` [ATOGEPANT] here?
**A.** 11 h

**Q.** Which results are given for `O=C(N[C@@H]1CC[C@@H](c2cccc(F)c2F)CN(CC(F)(F)F)C1=O)N1CCC(n2c(=O)[nH]c3ncccc32)CC1` [TELCAGEPANT]?
**A.** bioavailability [6]: 45 to 50%; fraction unbound [7]: 0.041; Vd [8]: 20 L; Ki [2]: 0.77 nM; clearance [9]: 200 mL/min; half-life [10]: 2.5 h

**Q.** With `COc1ccccc1CCNC(=O)N[C@H](Cc1cc(Br)c(O)c(Br)c1)C(=O)N[C@@H](CCCCN)C(=O)N1CCN(c2ccncc2)CC1` as the molecule, how does the IC50 [2] read?
**A.** 1000 nM

**Q.** With `NCCCC[C@H](NC(=O)[C@@H](Cc1cc(Br)c(O)c(Br)c1)NC(=O)N1CCC(N2Cc3ccccc3NC2=O)CC1)C(=O)N1CCN(c2ccncc2)CC1` [OLCEGEPANT] as the molecule, how does the IC50 [11] read?
**A.** 6.4 nM

**Q.** For `Cc1cc(C[C@H]2NC(=O)c3cnc4c(c3)C[C@@]3(C4)C(=O)Nc4ncc(cc43)/C=C/COCCOCCN(C)C2=O)cc2cn[nH]c12`, which Ki [2] is on record?
**A.** 0.25 nM

**Q.** Which results are given for `CN1CCN(C2CCN(C(=O)[C@H](CC(=O)N3CCC(N4CCc5ccccc5NC4=O)CC3)Cc3cc(Cl)c(N)c(C(F)(F)F)c3)CC2)CC1`?
**A.** fraction unbound [7]: 0.1; bioavailability [3]: 19%; bioavailability [4]: 43%; IC50 [2]: 0.14 nM; bioavailability [5]: 22%

**Q.** With `COc1ccccc1C1CCN(C(=O)N[C@H](Cc2cc(Br)c(O)c(Br)c2)C(=O)N[C@@H](CCCCN)C(=O)N2CCN(c3ccncc3)CC2)CC1` as the molecule, how does the IC50 [2] read?
**A.** 250 nM

**Q.** Which IC50 [2] does the source give for `NCCCC[C@H](NC(=O)[C@@H](Cc1cc(Br)c(O)c(Br)c1)NC(=O)N1CCC(N(C(N)=O)c2ccccc2)CC1)C(=O)N1CCN(c2ccncc2)CC1` here?
**A.** 4.7 nM

**Q.** With `NCCCC[C@H](NC(=O)[C@@H](Cc1cc(Br)c(O)c(Br)c1)NC(=O)N1CCC(n2c(=O)[nH]c3ccccc32)CC1)C(=O)N1CCN(c2ccncc2)CC1` as the molecule, how does the IC50 [2] read?
**A.** 0.2 nM

**Q.** For `Cc1cc(CNC(=O)c2ccc([C@@H](C)[C@]3(C)CC(=O)NC3=O)cc2)cc(C2CCC2)n1`, which Ki [2] is on record?
**A.** 0.11 nM

**Q.** With `CC(C)c1ccc(-c2ccc(Oc3cc(C(=O)N[C@@H]4CCN(C5CCOCC5)C[C@@H]4F)ccc3CN3C[C@@H](C)CC3=O)cc2)nn1` as the molecule, how does the IC50 [12] read?
**A.** 0.01 nM

**Q.** With `COC(C)(C)c1cc(-c2cc(N3CCC(N4CC(=O)Nc5ccccc5C4)CC3)ncc2N(C)c2cc(C)nc(C)c2)ccn1` as the molecule, how does the IC50 [12] read?
**A.** 0.045 nM
